Reference: PubChem BioAssay (NCI)
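1) Cells in 96-well plates. 2) Compound, 48 h, 5 concentrations. 3) Linear interpolation between surrounding doses. 4) Unreached endpoint = highest concentration. GI50 marks 50% less growth. TGI marks complete inhibition of growth.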

What was measured:
Test in all cases: growth of human tumour cells (NCI), 48 h
SNB-75 CNS = test system: SNB-75 CNS
SK-MEL-28 melanoma = test system: SK-MEL-28 melanoma
NCI-H226 lung = test system: NCI-H226 lung
HCT-116 colon = test system: HCT-116 colon
UACC-62 melanoma = test system: UACC-62 melanoma
RPMI-8226 leukemia = test system: RPMI-8226 leukemia
SW-620 colon = test system: SW-620 colon
HL-60(TB) leukemia = test system: HL-60(TB) leukemia
UACC-257 melanoma = test system: UACC-257 melanoma
SR leukemia = test system: SR leukemia

## Cc1ccc(-c2csc(/N=C3\C(=O)Nc4ccccc43)n2)cc1
SNB-75 CNS
  GI50: 1.17 µM
  TGI: 2.85 µM
SK-MEL-28 melanoma
  GI50: 1.47 µM
  TGI: 3.03 µM
NCI-H226 lung
  GI50: 1.78 µM
  TGI: 3.71 µM
HCT-116 colon
  GI50: 1.35 µM
  TGI: 2.79 µM
UACC-62 melanoma
  GI50: 1.37 µM
  TGI: 2.83 µM
RPMI-8226 leukemia
  GI50: 1.05 µM
  TGI: 4.29 µM
SW-620 colon
  GI50: 1.62 µM
  TGI: 3.66 µM

## C=C1C(=O)O[C@H]2C[C@@H]1CC/C(C)=C/CC/C(C)=C/CC[C@H]2C
SNB-75 CNS
  GI50: 19.4 µM
  TGI: 35.2 µM
SK-MEL-28 melanoma
  GI50: 21.4 µM
  TGI: 42.9 µM
HL-60(TB) leukemia
  GI50: 7.14 µM
  TGI: 16.2 µM
UACC-257 melanoma
  GI50: 11.5 µM
  TGI: 29.4 µM
SR leukemia
  GI50: 7.14 µM
  TGI: 15.2 µM
HCT-116 colon
  GI50: 7.82 µM
  TGI: 21.3 µM
UACC-62 melanoma
  GI50: 19.3 µM
  TGI: 34.6 µM
RPMI-8226 leukemia
  GI50: 5.46 µM
  TGI: 13.9 µM
SW-620 colon
  GI50: 14.7 µM
  TGI: 45.9 µM

## COc1ccc(-c2cc(=O)c3ccc(C)nc3[nH]2)cc1
SK-MEL-28 melanoma
  TGI: > 100 µM
HL-60(TB) leukemia
  GI50: > 100 µM
  TGI: > 100 µM
UACC-257 melanoma
  TGI: > 100 µM
NCI-H226 lung
  TGI: > 100 µM
HCT-116 colon
  GI50: > 100 µM
  TGI: > 100 µM
UACC-62 melanoma
  TGI: > 100 µM
RPMI-8226 leukemia
  TGI: > 100 µM
SW-620 colon
  TGI: > 100 µM

## C=C1C(O)C2C(=C(CCc3ccccc3)C13CC3)C(=O)C(C)(CO)C2O (stereo unspecified)
SNB-75 CNS
  GI50: > 100 µM
  TGI: > 100 µM
SK-MEL-28 melanoma
  GI50: > 100 µM
  TGI: > 100 µM
HL-60(TB) leukemia
  GI50: 81.9 µM
  TGI: > 100 µM
UACC-257 melanoma
  GI50: > 100 µM
  TGI: > 100 µM
SR leukemia
  GI50: 38.6 µM
  TGI: > 100 µM
NCI-H226 lung
  GI50: > 100 µM
  TGI: > 100 µM
UACC-62 melanoma
  GI50: > 100 µM
  TGI: > 100 µM
RPMI-8226 leukemia
  GI50: 22.2 µM
  TGI: 70.2 µM
SW-620 colon
  GI50: > 100 µM
  TGI: > 100 µM

## CC(=O)[CH-]C(C)=O.CC(=O)[CH-]C(C)=O.[CH2-]CCC.[CH2-]CCC.[Sn+4]
SNB-75 CNS
  GI50: 0.509 µM
  TGI: 1.79 µM
SK-MEL-28 melanoma
  GI50: 0.436 µM
  TGI: 1.67 µM
HL-60(TB) leukemia
  GI50: 0.347 µM
  TGI: 2.73 µM
UACC-257 melanoma
  GI50: 0.376 µM
  TGI: 1.68 µM
SR leukemia
  GI50: 0.382 µM
  TGI: > 100 µM
NCI-H226 lung
  GI50: 1.77 µM
  TGI: 3.45 µM
HCT-116 colon
  GI50: 0.65 µM
  TGI: 1.96 µM
UACC-62 melanoma
  GI50: 0.31 µM
  TGI: 1.18 µM
SW-620 colon
  GI50: 0.148 µM
  TGI: 0.375 µM

## CC(C)=CCc1c(OC(=O)c2c(C)cc(O)cc2O)cc(CO)c(CO)c1O
SNB-75 CNS
  TGI: 40.7 µM
SK-MEL-28 melanoma
  TGI: 46.7 µM
HL-60(TB) leukemia
  TGI: 19.1 µM
UACC-257 melanoma
  TGI: > 100 µM
SR leukemia
  TGI: 94.5 µM
NCI-H226 lung
  TGI: > 100 µM
HCT-116 colon
  TGI: 43.9 µM
UACC-62 melanoma
  TGI: 29.6 µM

## CN(C)CCCNC(=O)c1cc(NC(=O)c2cc(NC(=O)CCc3c[nH]c4ccccc34)cn2C)cn1C
SNB-75 CNS
  GI50: > 100 µM
  TGI: > 100 µM
SK-MEL-28 melanoma
  GI50: > 100 µM
  TGI: > 100 µM
HL-60(TB) leukemia
  GI50: > 100 µM
  TGI: > 100 µM
UACC-257 melanoma
  GI50: > 100 µM
  TGI: > 100 µM
NCI-H226 lung
  GI50: > 100 µM
  TGI: > 100 µM
UACC-62 melanoma
  GI50: > 100 µM
  TGI: > 100 µM
RPMI-8226 leukemia
  GI50: > 100 µM
  TGI: > 100 µM
SW-620 colon
  GI50: > 100 µM
  TGI: > 100 µM

## CCOC(=O)C1N(S(=O)(=O)c2ccc(C)cc2)CCC12c1ccccc1N(C(C)=O)C2c1ccc(OC)c(OC)c1 (stereo unspecified)
SNB-75 CNS
  TGI: > 100 µM
SK-MEL-28 melanoma
  TGI: > 100 µM
HL-60(TB) leukemia
  TGI: > 100 µM
UACC-257 melanoma
  TGI: > 100 µM
NCI-H226 lung
  TGI: > 100 µM
HCT-116 colon
  TGI: > 100 µM
UACC-62 melanoma
  TGI: > 100 µM
RPMI-8226 leukemia
  TGI: > 100 µM
SW-620 colon
  TGI: > 100 µM
